According to patent US4284769A, “Preparation of triazinyl nitriles” (priority 1975, dated 1981):

What was measured:
[1] = Polymerization constant Kp of radical initiators in styrene (dilatometer); conditions: initiator 0.05% by weight for poorly soluble ones, normally 0.2%
Procedure: (§1) In these examples the reactivities are determined of the radical initiators and polymerization initiators according to the invention and some known radical initiators. The reactivity is indicated with the polymerization constant Kp. The latter is very much dependent on the temperature and occurs in the formula Rp=Kp (M) (I)^1/2 where Rp is the polymerization speed, (M) the concentration of the monomer and (I) the concentration of the radical initiator (see "Die Makromolekulare Chemie" 157 (1972), p.279 ff). In all determinations 50 ml. of the monomer were mixed with the radial initiators listed in the following Table and transferred to a dilatometer. The dilatometer was cooled to -80° C., filled with nitrogen, followed by applying vacuum to it; the last two treatments were repeated three times. Then the dilatometer was placed in a thermostated bath which had been set to the polymerization temperature mentioned in the table below. The concentration values were determined in accordance with the standard dilatometric technique (see "Angewandte Chemie" 59 (1947), p90). From the values obtained the conversion and the Kp-values were successively determined. The Table below gives the values obtained for the compounds are prepared in the Examples I through VII. For comparison also the Kp-values of some known radical initiators, namely, α,α'-bis(methoxycarbo)α,α'-bis(p-methylphenyl)succinonitrile(dl) (IX), dilauroyl peroxide (X), di-t-butyl perpivalate (XI) and tert. butyl peroxypivalate (XII) are listed in the Table.
(§2) Because of the poor solubility of some of the radical initiators prepared in the preceding examples, the determination of the Kp-value was started from 0.05% by weight, whereas normally 0.2% by weight is included in the monomer to be polymerized. The Kp-values of other radical initiators in styrene are listed in the Tables 2 and 3 on page 283 of the aforementioned article in "Die Makromolekulare Chemie".

[2] = Polymerization constant Kp of radical initiators in methylmethacrylate (dilatometer); conditions: initiator 0.05% by weight for poorly soluble ones, normally 0.2%
Procedure: as §1, §2

| SMILES | Kp-value × 10^4 ([1]; temperature 70 °C) | Kp-value × 10^4 ([1]; temperature 80 °C) | Kp-value × 10^4 ([2]; temperature 50 °C) | Kp-value × 10^4 ([2]; temperature 60 °C) | Kp-value × 10^4 ([1]; temperature 90 °C) |
| --- | --- | --- | --- | --- | --- |
| COC(=O)[C@](C#N)(c1ccc(C)cc1)[C@](C#N)(C(=O)OC)c1ccc(C)cc1 (relative stereo) [IX, α,α'-bis(methoxycarbo)α,α'-bis(p-methylphenyl)succinonitrile(dl), reference compound] | 1.3 | 3.4 |  |  |  |
| CC(C)(C)OOC(=O)C(C)(C)C [XI, di-t-butyl perpivalate, reference compound] | 4.2 | 10.1 |  |  |  |
| CSc1nc(SC)nc(C(C#N)(c2ccc(C)cc2)C(C#N)(c2ccc(C)cc2)c2nc(SC)nc(SC)n2)n1 (stereo not drawn) [Example III, α,α'-bis(p-methylphenyl)α,α'-bis(2,4-dimethylthio-1,3,5-triazine)succinonitrile] |  |  | 2.85 | 5.92 |  |
| CCCCCCCCCCCCCCCCCCOc1nc(OCCCCCCCCCCCCCCCCCC)nc(C(C#N)(c2ccc(C)cc2)C(C#N)(c2ccc(C)cc2)c2nc(OCCCCCCCCCCCCCCCCCC)nc(OCCCCCCCCCCCCCCCCCC)n2)n1 (stereo not drawn) [Example V, α,α'-bis(p-tolyl)α,α'-bis(2,4-distearoxy-1,3,5-triazine)succinonitrile] | 3.05 | 7.86 | 2.32 | 4.48 |  |
| CC(C)(C)OOC(=O)C(C)(C)C [XII, tert. butyl peroxypivalate, reference compound] |  |  | 3.0 |  |  |
| Cc1ccc(C(C#N)(c2nc(N3CCCCC3)nc(N3CCCCC3)n2)C(C#N)(c2ccc(C)cc2)c2nc(N3CCCCC3)nc(N3CCCCC3)n2)cc1 (stereo not drawn) [VI, α,α'-bis(p-methylphenyl) α,α'-bis (2,4-dipiperidino-1,3,5-triazine)succinonitrile] |  | 1.60 | no polymerization | no polymerization | 3.56 |
| CCCCCCCCCCCC(=O)OOC(=O)CCCCCCCCCCC [X, dilauroyl peroxide, reference compound] | 2.4 | 5.8 |  |  |  |
| COc1ccc(C(C#N)(c2nc(OC)nc(OC)n2)C(C#N)(c2ccc(OC)cc2)c2nc(OC)nc(OC)n2)cc1 (stereo not drawn) [Example IV, α,α'-bis(p-methoxyphenyl)α,α'-bis(2,4-dimethoxy-1,3,5-triazine)succinonitrile] |  |  | 1.1 | 2.7 |  |
| COc1nc(OC)nc(C(C#N)(c2ccc(C)cc2)C(C#N)(c2ccc(C)cc2)c2nc(OC)nc(OC)n2)n1 (stereo not shown) [I + II] |  |  | 3.85 | 7.5 |  |
| COc1nc(OC)nc(C(C#N)(c2ccc(Cl)cc2)C(C#N)(c2ccc(Cl)cc2)c2nc(OC)nc(OC)n2)n1 (stereo not drawn) [VII, α,α'-bis(p-chorophenyl)α,α'-bis(2,4-dimethoxy-1,3,5-triazine)succinonitrile] | 6.10 | 5.70 | 2.10 | 5.52 |  |
